Assay [1] relates to pressure-induced pain. Briefly: Pain test for analgesic activity (modified Randall-Selitto, Brewers' yeast inflamed paw pressure). The assay is classed as in vivo, Male Wistar-Imamichi rats. To be noted: read-out: Analgesic activity ED50. Here is the method: Pain test for analgesic activity
This test was conducted according to a modification of the method reported by L. O. Randall and J. J. Selitto in Arch. Int.
Male Wistar-Imamichi rats of 4 weeks of age and weighing 60-90 g were injected with 0.1 ml of a 20% by weight suspension of Brewers' yeast in the right hind paw. […] Each of these was given orally a test compound as an aqueous tragacanth suspension. 1 and 2 hours after administration of the test compound, the pain threshold was determined by observing pain responses (such as struggling or squeaking) when the inflamed or normal paw was subjected to pressure by a machine (Ugo-Basile).

Assay [2] has as its system carrageenin oedema. Briefly: Carrageenin oedema test for anti-inflammatory activity. The assay is classed as in vivo, Male Wistar rats. To be noted: rat, per os, aqueous tragacanth suspension, 30 minutes before carrageenin; paw volume 3 hours after carrageenin injection; dose to inhibit the response by 50%; unit assumed. On the procedure:
Carrageenin oedema test for anti-inflammatory activity
Male Wistar rats weighing 120-150 g were fasted overnight and then received a test compound per os as an aqueous tragacanth suspension. 30 minutes later, inflammation was induced by the subcutaneous injection of 0.05 ml of a 1% carrageenin suspension into the plantar tissue of a hind paw of each rat [Winter et al., Proc. Soc. […] The anti-oedema activity was measured volumetrically, by assessing the response, as calculated from the following equation: […]
where Vo and V represent, respectively, the paw volume immediately before and 3 hours after the carrageenin injection.

[3] abbreviates: rat, oral, aqueous tragacanth suspension, pain threshold 1 and 2 hours after administration, effective = at least twice mean pain threshold of controls, Litchfield and Wilcoxon.

Read-outs that look alike come from different tables or passages of the source.

With `CC(C(=O)O)c1ccc(C=C2CCCCC2O)cc1` (stereo not drawn) [A, 2-[4-(2-hydroxycyclohexylidenemethyl)phenyl]propionic acid], the ED50 in assay [1] (setting [3]) is 0.35 mg/kg. This compound also had an Anti-inflammatory activity ID50 in assay [2] of 0.98 mg/kg.
For `COc1ccc2c(c1)c(CC(=O)O)c(C)n2C(=O)c1ccc(Cl)cc1` [B, Indomethacin], the ED50 in assay [1] (Rattus norvegicus, po) was 1.6 mg/kg. Besides, the Anti-inflammatory activity ID50 in assay [2] was determined as 2.2 mg/kg.
Regarding `CC(C(=O)O)c1ccc(C=C2CCCCC2=O)cc1` (stereo not drawn) [C, 2-[4-(2-oxocyclohexylidenemethyl)phenyl]propionic acid], the ED50 in assay [1] (setting [3]) came out at 0.94 mg/kg. In assay [2], this compound yielded an Anti-inflammatory activity ID50 of 1.2 mg/kg.

For the origin of these results see patent publication US4461912A, “Phenylacetic acid derivatives, their preparation and compositions containing them” (Sankyo Company Limited, priority 1981, dated 1984).
